{
  "source": "patent US10166279B2",
  "about": "“Vaccine” (Bergen Teknologioverføring AS, priority 2013, dated 2019)",
  "molecular_target": "T1, GC-C receptor (Homo sapiens, UniProt P25092)",
  "T1 construct": "endogenous in cells; host or cells: T-84 cells",
  "T1 sequence (P25092 24-1073)": "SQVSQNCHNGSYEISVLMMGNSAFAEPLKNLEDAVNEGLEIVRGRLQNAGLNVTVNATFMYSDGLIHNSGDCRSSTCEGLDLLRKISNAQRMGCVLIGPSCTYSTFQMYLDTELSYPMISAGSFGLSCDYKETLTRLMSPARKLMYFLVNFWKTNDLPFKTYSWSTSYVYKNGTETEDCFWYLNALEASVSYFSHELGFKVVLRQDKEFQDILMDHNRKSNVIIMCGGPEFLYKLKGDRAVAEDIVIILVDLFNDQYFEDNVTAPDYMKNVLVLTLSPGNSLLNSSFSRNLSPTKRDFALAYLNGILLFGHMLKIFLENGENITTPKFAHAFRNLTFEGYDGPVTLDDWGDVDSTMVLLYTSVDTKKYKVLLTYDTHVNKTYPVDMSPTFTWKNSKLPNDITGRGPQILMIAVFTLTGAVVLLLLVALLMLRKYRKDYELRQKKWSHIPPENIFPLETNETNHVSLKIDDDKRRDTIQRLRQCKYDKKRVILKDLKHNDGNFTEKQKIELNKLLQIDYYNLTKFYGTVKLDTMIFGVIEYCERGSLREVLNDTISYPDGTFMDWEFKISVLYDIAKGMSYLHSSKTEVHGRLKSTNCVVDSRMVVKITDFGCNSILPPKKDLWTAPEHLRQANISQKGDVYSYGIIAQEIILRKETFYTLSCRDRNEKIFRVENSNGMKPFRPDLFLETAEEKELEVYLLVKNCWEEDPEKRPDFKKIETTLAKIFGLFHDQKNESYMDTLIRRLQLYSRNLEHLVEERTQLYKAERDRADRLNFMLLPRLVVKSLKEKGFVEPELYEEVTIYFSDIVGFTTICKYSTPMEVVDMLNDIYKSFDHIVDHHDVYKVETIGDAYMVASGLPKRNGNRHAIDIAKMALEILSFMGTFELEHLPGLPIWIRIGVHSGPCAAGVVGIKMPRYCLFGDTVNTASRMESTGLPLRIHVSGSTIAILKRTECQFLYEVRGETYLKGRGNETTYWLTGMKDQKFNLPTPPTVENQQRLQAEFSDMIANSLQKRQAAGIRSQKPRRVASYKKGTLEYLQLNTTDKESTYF",
  "test": "GC-C receptor T-84 cell assay (toxicity, cGMP levels) of culture filtrates",
  "format": "cell-based",
  "details": "relative to native STh; culture filtrate; ^2 = no detectable toxicity, set to detection limit 0.0014",
  "description": "T-84 cells were seeded and cultured in each well of a 24 well plate. After removing the Dulbecco's modified Eagle's medium (DMEM:F12 (1:1) Lonza Walkersville, Inc.), cells were washed 3 times with 0.5 mL DMEM. Cells were incubated with 0.25 mL DMEM containing 1 mM 3-isobutyl-1-methylxanthine (IBMX) for 10 min at 37° C. 0.1 mL of sample (culture filtrate) was added to each well and incubated for 60 min at 37° C. Following incubation, the reaction medium was aspirated, and the cells were lysed with […] HCl at room temperature for 20 min. The lysates were centrifuged at top speed for 10 min and the cGMP levels were measured in control- and agonist-stimulated cells with a direct cGMP enzyme immunoassay kit (Enzo Life Sciences, Inc.) according to the manufacturer's instructions.\nThe culture filtrate of each mutant was added to the T-84 cells in duplicate, and a serial dilution of culture filtrates with recombinantly expressed native ST was used to generate a standard curve.\nToxicity measured in culture filtrates is a product of intrinsic toxicity (toxicity per mol) and the concentration of the ST mutant. The same is true for antigenicity. […] Since we have no method for accurately measuring ST (mutant) concentrations in culture filtrates, we are not able to directly measure intrinsic toxicities and antigenicities for the ST mutants.\nTo circumvent this problem we measure toxicity and antigenicity for the ST mutants relative to native ST. This allows us to describe changes in toxicity and antigenicity in mutant culture filtrates. Next, we divide the change in antigenicity by the change in toxicity for each mutant. If the same culture filtrate has been used to measure toxicity and antigenicity this allows us to eliminate the of the concentration.",
  "note": "Peptide text beside a SMILES is read from it.",
  "data": [
    {"molecule": "CC(C)C[C@@H]1NC(=O)[C@H](CCC(=O)O)NC(=O)[C@@H]2CSSC[C@@H]3NC(=O)[C@H](CCC(=O)O)NC(=O)[C@@H]4CCCN4C(=O)[C@H](CC(N)=O)NC(=O)[C@H](CSSC[C@H](NC(=O)[C@H](Cc4ccc(O)cc4)NC(=O)[C@H](CC(N)=O)NC(=O)[C@H](CO)NC(=O)[C@H](CO)NC(=O)[C@@H](N)CC(N)=O)C(=O)N2)NC(=O)[C@H](CSSC[C@@H](C(=O)N[C@@H](Cc2ccc(O)cc2)C(=O)O)NC(=O)CNC(=O)[C@H]([C@@H](C)O)NC3=O)NC1=O", "note": "[Mutant A14E] (HELM PEPTIDE1{N.S.S.N.Y.C.C.E.L.C.C.N.P.E.C.T.G.C.Y}$PEPTIDE1,PEPTIDE1,6:R3-11:R3|PEPTIDE1,PEPTIDE1,7:R3-15:R3|PEPTIDE1,PEPTIDE1,10:R3-18:R3$$$V2.0)", "values": [
      {"measurement": "Toxicity", "value": "< 0.0014^2"}
    ]},
    {"molecule": "CC(C)C[C@@H]1NC(=O)[C@H](CCC(=O)O)NC(=O)[C@@H]2CSSC[C@@H]3NC(=O)[C@H](Cc4c[nH]cn4)NC(=O)[C@@H]4CCCN4C(=O)[C@H](CC(N)=O)NC(=O)[C@H](CSSC[C@H](NC(=O)[C@H](Cc4ccc(O)cc4)NC(=O)[C@H](CC(N)=O)NC(=O)[C@H](CO)NC(=O)[C@H](CO)NC(=O)[C@@H](N)CC(N)=O)C(=O)N2)NC(=O)[C@H](CSSC[C@@H](C(=O)N[C@@H](Cc2ccc(O)cc2)C(=O)O)NC(=O)CNC(=O)[C@H]([C@@H](C)O)NC3=O)NC1=O", "note": "[Mutant A14H] (HELM PEPTIDE1{N.S.S.N.Y.C.C.E.L.C.C.N.P.H.C.T.G.C.Y}$PEPTIDE1,PEPTIDE1,6:R3-11:R3|PEPTIDE1,PEPTIDE1,7:R3-15:R3|PEPTIDE1,PEPTIDE1,10:R3-18:R3$$$V2.0)", "values": [
      {"measurement": "Toxicity", "value": "< 0.0014^2"}
    ]},
    {"molecule": "CC[C@H](C)[C@@H]1NC(=O)[C@@H]2CCCN2C(=O)[C@H](CC(N)=O)NC(=O)[C@@H]2CSSC[C@H](NC(=O)[C@H](Cc3ccc(O)cc3)NC(=O)[C@H](CC(N)=O)NC(=O)[C@H](CO)NC(=O)[C@H](CO)NC(=O)[C@@H](N)CC(N)=O)C(=O)N[C@H]3CSSC[C@H](NC1=O)C(=O)N[C@@H]([C@@H](C)O)C(=O)NCC(=O)N[C@H](C(=O)N[C@@H](Cc1ccc(O)cc1)C(=O)O)CSSC[C@H](NC(=O)[C@H](CC(C)C)NC(=O)[C@H](CCC(=O)O)NC3=O)C(=O)N2", "note": "[Mutant A14I] (HELM PEPTIDE1{N.S.S.N.Y.C.C.E.L.C.C.N.P.I.C.T.G.C.Y}$PEPTIDE1,PEPTIDE1,6:R3-11:R3|PEPTIDE1,PEPTIDE1,7:R3-15:R3|PEPTIDE1,PEPTIDE1,10:R3-18:R3$$$V2.0)", "values": [
      {"measurement": "Toxicity", "value": "< 0.0014^2"}
    ]},
    {"molecule": "CC(C)C[C@@H]1NC(=O)[C@H](CCC(=O)O)NC(=O)[C@@H]2CSSC[C@@H]3NC(=O)[C@H](CCC(N)=O)NC(=O)[C@@H]4CCCN4C(=O)[C@H](CC(N)=O)NC(=O)[C@H](CSSC[C@H](NC(=O)[C@H](Cc4ccc(O)cc4)NC(=O)[C@H](CC(N)=O)NC(=O)[C@H](CO)NC(=O)[C@H](CO)NC(=O)[C@@H](N)CC(N)=O)C(=O)N2)NC(=O)[C@H](CSSC[C@@H](C(=O)N[C@@H](Cc2ccc(O)cc2)C(=O)O)NC(=O)CNC(=O)[C@H]([C@@H](C)O)NC3=O)NC1=O", "note": "[Mutant A14Q] (HELM PEPTIDE1{N.S.S.N.Y.C.C.E.L.C.C.N.P.Q.C.T.G.C.Y}$PEPTIDE1,PEPTIDE1,6:R3-11:R3|PEPTIDE1,PEPTIDE1,7:R3-15:R3|PEPTIDE1,PEPTIDE1,10:R3-18:R3$$$V2.0)", "values": [
      {"measurement": "Toxicity", "value": "< 0.0014^2"}
    ]},
    {"molecule": "CC(C)C[C@@H]1NC(=O)[C@H](CCC(=O)O)NC(=O)[C@@H]2CSSC[C@@H]3NC(=O)[C@H](CCCNC(=N)N)NC(=O)[C@@H]4CCCN4C(=O)[C@H](CC(N)=O)NC(=O)[C@H](CSSC[C@H](NC(=O)[C@H](Cc4ccc(O)cc4)NC(=O)[C@H](CC(N)=O)NC(=O)[C@H](CO)NC(=O)[C@H](CO)NC(=O)[C@@H](N)CC(N)=O)C(=O)N2)NC(=O)[C@H](CSSC[C@@H](C(=O)N[C@@H](Cc2ccc(O)cc2)C(=O)O)NC(=O)CNC(=O)[C@H]([C@@H](C)O)NC3=O)NC1=O", "note": "[Mutant A14R] (HELM PEPTIDE1{N.S.S.N.Y.C.C.E.L.C.C.N.P.R.C.T.G.C.Y}$PEPTIDE1,PEPTIDE1,6:R3-11:R3|PEPTIDE1,PEPTIDE1,7:R3-15:R3|PEPTIDE1,PEPTIDE1,10:R3-18:R3$$$V2.0)", "values": [
      {"measurement": "Toxicity", "value": "< 0.0014^2"}
    ]},
    {"molecule": "CC(C)C[C@@H]1NC(=O)[C@H](CCC(=O)O)NC(=O)[C@@H]2CSSC[C@@H]3NC(=O)[C@H]([C@@H](C)O)NC(=O)[C@@H]4CCCN4C(=O)[C@H](CC(N)=O)NC(=O)[C@H](CSSC[C@H](NC(=O)[C@H](Cc4ccc(O)cc4)NC(=O)[C@H](CC(N)=O)NC(=O)[C@H](CO)NC(=O)[C@H](CO)NC(=O)[C@@H](N)CC(N)=O)C(=O)N2)NC(=O)[C@H](CSSC[C@@H](C(=O)N[C@@H](Cc2ccc(O)cc2)C(=O)O)NC(=O)CNC(=O)[C@H]([C@@H](C)O)NC3=O)NC1=O", "note": "[Mutant A14T] (HELM PEPTIDE1{N.S.S.N.Y.C.C.E.L.C.C.N.P.T.C.T.G.C.Y}$PEPTIDE1,PEPTIDE1,6:R3-11:R3|PEPTIDE1,PEPTIDE1,7:R3-15:R3|PEPTIDE1,PEPTIDE1,10:R3-18:R3$$$V2.0)", "values": [
      {"measurement": "Toxicity", "value": "< 0.0014^2"}
    ]},
    {"molecule": "CC(C)C[C@@H]1NC(=O)[C@H](CCCNC(=N)N)NC(=O)[C@@H]2CSSC[C@@H]3NC(=O)[C@H](C)NC(=O)[C@@H]4CCCN4C(=O)[C@H](CC(N)=O)NC(=O)[C@H](CSSC[C@H](NC(=O)[C@H](Cc4ccc(O)cc4)NC(=O)[C@H](CC(N)=O)NC(=O)[C@H](CO)NC(=O)[C@H](CO)NC(=O)[C@@H](N)CC(N)=O)C(=O)N2)NC(=O)[C@H](CSSC[C@@H](C(=O)N[C@@H](Cc2ccc(O)cc2)C(=O)O)NC(=O)CNC(=O)[C@H]([C@@H](C)O)NC3=O)NC1=O", "note": "[Mutant E08R] (HELM PEPTIDE1{N.S.S.N.Y.C.C.R.L.C.C.N.P.A.C.T.G.C.Y}$PEPTIDE1,PEPTIDE1,6:R3-11:R3|PEPTIDE1,PEPTIDE1,7:R3-15:R3|PEPTIDE1,PEPTIDE1,10:R3-18:R3$$$V2.0)", "values": [
      {"measurement": "Toxicity", "value": 0.0021}
    ]},
    {"molecule": "CC(C)C[C@@H]1NC(=O)[C@H](CCC(=O)O)NC(=O)[C@@H]2CSSC[C@@H]3NC(=O)[C@H](C)NC(=O)[C@@H]4CCCN4C(=O)[C@H](CC(N)=O)NC(=O)[C@H](CSSC[C@H](NC(=O)[C@H](Cc4ccc(O)cc4)NC(=O)[C@H](CC(N)=O)NC(=O)[C@H](CO)NC(=O)[C@H](CO)NC(=O)[C@@H](N)CC(N)=O)C(=O)N2)NC(=O)[C@H](CSSC[C@@H](C(=O)N[C@@H](Cc2ccc(O)cc2)C(=O)O)NC(=O)[C@H](Cc2ccc(O)cc2)NC(=O)[C@H]([C@@H](C)O)NC3=O)NC1=O", "note": "[Mutant G17Y] (HELM PEPTIDE1{N.S.S.N.Y.C.C.E.L.C.C.N.P.A.C.T.Y.C.Y}$PEPTIDE1,PEPTIDE1,6:R3-11:R3|PEPTIDE1,PEPTIDE1,7:R3-15:R3|PEPTIDE1,PEPTIDE1,10:R3-18:R3$$$V2.0)", "values": [
      {"measurement": "Toxicity", "value": 0.0234}
    ]},
    {"molecule": "C[C@@H]1NC(=O)[C@@H]2CCCN2C(=O)[C@H](CC(N)=O)NC(=O)[C@@H]2CSSC[C@H](NC(=O)[C@H](Cc3ccc(O)cc3)NC(=O)[C@H](CC(N)=O)NC(=O)[C@H](CO)NC(=O)[C@H](CO)NC(=O)[C@@H](N)CC(N)=O)C(=O)N[C@H]3CSSC[C@H](NC1=O)C(=O)N[C@@H]([C@@H](C)O)C(=O)NCC(=O)N[C@H](C(=O)N[C@@H](Cc1ccc(O)cc1)C(=O)O)CSSC[C@H](NC(=O)CNC(=O)[C@H](CCC(=O)O)NC3=O)C(=O)N2", "note": "[Mutant L09G] (HELM PEPTIDE1{N.S.S.N.Y.C.C.E.G.C.C.N.P.A.C.T.G.C.Y}$PEPTIDE1,PEPTIDE1,6:R3-11:R3|PEPTIDE1,PEPTIDE1,7:R3-15:R3|PEPTIDE1,PEPTIDE1,10:R3-18:R3$$$V2.0)", "values": [
      {"measurement": "Toxicity", "value": "< 0.0014^2"}
    ]},
    {"molecule": "CSCC[C@H](N)C(=O)N[C@@H](CO)C(=O)N[C@@H](CO)C(=O)N[C@@H](CC(N)=O)C(=O)N[C@@H](Cc1ccc(O)cc1)C(=O)N[C@H]1CSSC[C@@H]2NC(=O)[C@@H]3CSSC[C@@H](C(=O)N[C@@H](Cc4ccc(O)cc4)C(=O)O)NC(=O)CNC(=O)[C@H]([C@@H](C)O)NC(=O)[C@H](CSSC[C@H](NC1=O)C(=O)N[C@@H](CCC(=O)O)C(=O)N[C@@H](CC(C)C)C(=O)N3)NC(=O)[C@H](C)NC(=O)[C@@H]1CCCN1C(=O)[C@H](CC(N)=O)NC2=O", "note": "[Mutant N01M] (HELM PEPTIDE1{M.S.S.N.Y.C.C.E.L.C.C.N.P.A.C.T.G.C.Y}$PEPTIDE1,PEPTIDE1,6:R3-11:R3|PEPTIDE1,PEPTIDE1,7:R3-15:R3|PEPTIDE1,PEPTIDE1,10:R3-18:R3$$$V2.0)", "values": [
      {"measurement": "Toxicity", "value": 1.8910}
    ]},
    {"molecule": "CC(C)C[C@@H]1NC(=O)[C@H](CCC(=O)O)NC(=O)[C@@H]2CSSC[C@@H]3NC(=O)[C@H](C)NC(=O)[C@@H]4CCCN4C(=O)[C@H](CC(N)=O)NC(=O)[C@H](CSSC[C@H](NC(=O)[C@H](Cc4ccc(O)cc4)NC(=O)[C@H](CC(C)C)NC(=O)[C@H](CO)NC(=O)[C@H](CO)NC(=O)[C@@H](N)CC(N)=O)C(=O)N2)NC(=O)[C@H](CSSC[C@@H](C(=O)N[C@@H](Cc2ccc(O)cc2)C(=O)O)NC(=O)CNC(=O)[C@H]([C@@H](C)O)NC3=O)NC1=O", "note": "[Mutant N04L] (HELM PEPTIDE1{N.S.S.L.Y.C.C.E.L.C.C.N.P.A.C.T.G.C.Y}$PEPTIDE1,PEPTIDE1,6:R3-11:R3|PEPTIDE1,PEPTIDE1,7:R3-15:R3|PEPTIDE1,PEPTIDE1,10:R3-18:R3$$$V2.0)", "values": [
      {"measurement": "Toxicity", "value": 0.2934}
    ]}
  ]
}
